According to patent publication US10294248B2, “Beta-lactamase inhibitors” (VenatoRx Pharmaceuticals, Inc., priority 2013, dated 2019):
pIC50: −log10 of the molar value. Each block holds one compound with its values, some of them ahead of it.

Legend:
[1] = system: K. pneumoniae A-1797 expressing KPC-2 and VIM-4; assay: Broth microdilution MIC, K. pneumoniae A-1797 KPC-2/VIM-4; format: cell-based; conditions: for MIC of example compound in presence of fixed β-lactam: Fixed Mero, K. P. A-1797 KPC-2 VIM-4: fixed 4 μg/mL meropenem, CAMHB, 16-20 hours at 37° C.
Source text: (§1) To determine the ability of test compounds to potentiate the inhibition of the growth of bacterial strains that produce beta-lactamase enzymes, classic cell based broth microdilution MIC assays were employed. Six bacteria strains producing beta-lactamase enzymes were used: E. coli expressing the Class A Extended Spectrum Beta-Lactamase (ESBL) CTX-M-15, E. cloacae expressing the Class C P99, K. pneumoniae expressing the Class A carbapenemase KPC-3, P. aeruginosa expressing the Class B carbapenemase VIM-2, K. pneumoniae expressing the class A carbapenemase KPC-2 and the class B carbapenemase VIM-4, and S. aureus producing the Class A penicillinase PC-1. The assay was conducted in Cation Adjusted Mueller Hinton Broth (CAMHB, BD #212322, BD Diagnostic Systems, Sparks, Md.). Bacteria strains were grown for 3-5 hours in CAMBH broth. Test compounds (Examples 1-30) were added to a microtiter plate in 2-fold serial dilutions in CAMHB in a final concentration range of 32 μg/mL to 0.25 μg/ml. An overlay of CAMHB containing a Beta-lactam was added to the compounds at a final static concentration of 4 μg/ml. […] In addition to the titration of test compounds the MICs of a panel of control beta-lactams is also tested to ensure the strains are behaving consistently from test to test. Once the test compound and antibiotics are added the plates can be inoculated according to CLSI broth microdilution method. After inoculation the plates are incubated for 16-20 hours at 37° C. then the Minimal Inhibitory Concentration (MIC) of the test compound is determined visually.
(§2) Using the methodology described above, examples of the current invention were evaluated for their ability to inhibit the growth of β-lactamase-producing bacteria in the presence of a β-lactam antibiotic.
(§3) Using the methodology described above in EXAMPLE III, exemplary compounds for Formula I or Formula Ia were evaluated for their ability to inhibit the growth of β-lactamase producing bacteria in the presence of a β-lactam antibiotic.

[2] = system: K. pneumoniae 156319 expressing KPC-3; assay: Broth microdilution MIC, K. pneumoniae 156319 KPC-3; format: cell-based
Source text: as §1, §2, §3

[3] = system: P. aeruginosa Ps296 expressing VIM-2; assay: Broth microdilution MIC, P. aeruginosa Ps296 VIM-2; format: cell-based; conditions: for MIC of example compound in presence of fixed β-lactam: Fixed Mero, P. aerug. Ps296 VIM-2: fixed 4 μg/mL meropenem, CAMHB, 16-20 hours at 37° C.
Source text: as §1, §2, §3

[4] = system: S. aureus MSSA-7 producing penicillinase PC-1; assay: Broth microdilution MIC, S. aureus MSSA-7 PC-1; format: cell-based; conditions: for MIC of example compound in presence of fixed β-lactam: Fixed Pip, S. aureus MSSA-7 PC-1: fixed 4 μg/mL piperacillin, CAMHB, 16-20 hours at 37° C.
Source text: as §1, §2, §3

[5] = system: E. coli ESBL4 expressing CTX-M-15; assay: Broth microdilution MIC, E. coli ESBL4 CTX-M-15; format: cell-based; conditions: fixed 4 μg/mL ceftazidime; CAMHB, 16-20 hours at 37° C.
Source text: as §1, §2, §3

[6] = target: T1, VIM-2 metallo-β-lactamase (Class B) (Pseudomonas aeruginosa, UniProt Q9K2N0); assay: β-Lactamase inhibition, VIM-2; format: biochemical; conditions: nitrocefin 100 μM, 486 nm; 15 min preincubation at 37° C., PBS pH 7.4
T1 construct: made in house; host or cells: E. coli BL21(DE3)
Method: For Vim-2 metallo β-lactamase, the procedure was identical with the following exceptions, first the protein was not pH adjusted to pH 5 with 50 mM sodium acetate, second, the chromatography step was changed to a 5 ml Q sepharose anion exchange column pre-equilibrated with 50 mM Hepes pH 7.5, and elution of the protein was achieved by a linear gradient of NaCl (0-600 mM). Finally, the VIM-2 purification required a second run (3rd step) on the Q sepharose anion exchange column to achieve acceptable purity (>90%).
(§4) An equal volume of diluted enzyme stock was added, and the plates were incubated at 37° C. for 15 min. Nitrocefin was used as substrate for p99 AmpC, VIM-2 and OXA-1 and dispensed into each well at a final concentration of 100 μM. Absorbance at 486 nm was immediately monitored for 10 min using a Biotek Powerwave XS2 microplate spectrophotometer using the GEN5 software package (Biotek Instruments, Winooski Vt.). In an analogous fashion, imipenem was used as substrate for Kpc-2 and Cefotaxime was used for SHV-5, while changes in absorbance upon hydrolysis of the β-lactam ring were monitored at 300 nm and 260 nm respectively in UV-transparent 96-well microtiter assay plates. Maximum rates of hydrolysis were compared to those in control wells (without inhibitors), and percentages of enzyme inhibition were calculated for each concentration of inhibitor. The concentration of inhibitor needed to reduce the initial rate of hydrolysis of substrate by 50% (IC50) was calculated as the residual activity of β-lactamase at 486 nm using GraFit version 7 kinetics software package (Erithacus Software, Surrey, UK).
(§5) Using the methodology described above, examples of the current invention were evaluated for their ability to inhibit β-lactamase enzymes from all four Ambler classifications (A through D). […] NT=Not tested.

[7] = system: E. cloacae 144200 expressing Class C P99 AmpC; assay: Broth microdilution MIC, E. cloacae 144200 p99 AmpC; format: cell-based; conditions: fixed 4 μg/mL ceftazidime; CAMHB, 16-20 hours at 37° C.
Source text: as §1, §2, §3

[8] = target: T2, SHV-5 β-lactamase (Class A ESBL) (Klebsiella pneumoniae, UniProt P0A3M1); assay: β-Lactamase inhibition, SHV-5; format: biochemical
T2 construct: made in house; host or cells: E. coli BL21(DE3)
T2 sequence (P0A3M1 22-286): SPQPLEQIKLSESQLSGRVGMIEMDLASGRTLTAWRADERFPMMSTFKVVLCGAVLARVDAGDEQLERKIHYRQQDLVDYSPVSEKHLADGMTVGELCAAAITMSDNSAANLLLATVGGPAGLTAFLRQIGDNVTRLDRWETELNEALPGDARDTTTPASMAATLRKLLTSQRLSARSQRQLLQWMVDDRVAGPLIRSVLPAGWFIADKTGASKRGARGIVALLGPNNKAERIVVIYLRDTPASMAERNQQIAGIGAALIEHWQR
Method: (§6) For SHV-5, Kpc-2, p99AmpC and OXA-1 β-lactamases, E. coli BL21(DE3) bacterial cells carrying expression plasmids (expressed as native untagged proteins) for the individual β-lactamases were grown in 1 L of Superbroth (Teknova Inc. Hollister, Calif.) supplemented with 100 μg/ml kanamycin selection and 1×5052 (0.5% glycerol, 0.05% glucose and 0.2% α-lactose) at 35° C. for 18-20 hours. Cells were harvested by centrifugation (4,000×g, 4° C., 20 min), resuspended in 50 ml of 10 mM HEPES pH 7.5 ( 1/20 of the initial volume). The cells were lysed by sonication (5 pulses of 45 seconds) at 45 W on ice. The lysates were clarified by centrifugation at 10,000×g for 40 minutes at 4° C. Samples were diluted 5-fold in 50 mM sodium acetate pH 5.0, stored overnight at 4° C., after which they were centrifuged at 10,000×g for 30 minutes to clarify, and filtered through 0.45 μm filters. The samples were loaded onto a 5 ml Capto S sepharose cation exchange column (GE Healthcare) pre-equilibrated with 50 mM sodium acetate pH 5.0. The column was washed with 5 column volumes of 50 mM sodium acetate pH 5.0 to wash out unbound protein and a linear gradient of NaCl (0 to 500 mM) was used to elute the protein (over 16 CV) from the column. Fractions were assayed for β-lactamase activity using Centa (Calbiochem, Gibbstown, N.J.) or Nitrocefin (EMD Millipore chemicals, Darmstadt, Germany) as a reporter β-lactamase substrate for activity in the isolated fractions. Active fractions were pooled, concentrated and further purified by gel filtration chromatography on a Superdex 75 prep grade gel filtration column (GE Healthcare, Piscataway, N.J.) pre-equilibrated in 50 mM Hepes pH 7.5, 150 mM NaCl. Active fractions were pooled concentrated, quantitated by BCA protein determination (Thermo Scientific, Rockford, Ill.), dialyzed into PBS and frozen at −80° C. in 20% glycerol until use.
as §4, §5

[9] = target: T3, p99 AmpC β-lactamase (Class C) (Enterobacter cloacae, UniProt P05364); assay: β-Lactamase inhibition, p99 AmpC; format: biochemical
T3 construct: made in house; host or cells: E. coli BL21(DE3)
T3 sequence (P05364 21-381): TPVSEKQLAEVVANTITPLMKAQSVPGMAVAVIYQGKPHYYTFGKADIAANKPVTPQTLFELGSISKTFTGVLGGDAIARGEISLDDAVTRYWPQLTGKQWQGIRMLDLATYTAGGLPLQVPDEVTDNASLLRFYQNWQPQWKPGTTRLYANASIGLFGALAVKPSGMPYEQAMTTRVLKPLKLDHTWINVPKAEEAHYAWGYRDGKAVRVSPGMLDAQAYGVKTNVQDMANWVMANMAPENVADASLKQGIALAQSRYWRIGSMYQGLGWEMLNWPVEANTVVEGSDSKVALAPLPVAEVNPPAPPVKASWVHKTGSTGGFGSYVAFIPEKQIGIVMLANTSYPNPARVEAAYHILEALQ
Method: as §6, §4, §5

[10] = target: T4, KPC-2 β-lactamase (Class A carbapenemase) (Klebsiella pneumoniae, UniProt Q9F663); assay: β-Lactamase inhibition, KPC-2; format: biochemical; conditions: imipenem substrate, 300 nm; 15 min preincubation at 37° C., PBS pH 7.4
T4 construct: made in house; host or cells: E. coli BL21(DE3)
T4 sequence (Q9F663 25-293, looked up): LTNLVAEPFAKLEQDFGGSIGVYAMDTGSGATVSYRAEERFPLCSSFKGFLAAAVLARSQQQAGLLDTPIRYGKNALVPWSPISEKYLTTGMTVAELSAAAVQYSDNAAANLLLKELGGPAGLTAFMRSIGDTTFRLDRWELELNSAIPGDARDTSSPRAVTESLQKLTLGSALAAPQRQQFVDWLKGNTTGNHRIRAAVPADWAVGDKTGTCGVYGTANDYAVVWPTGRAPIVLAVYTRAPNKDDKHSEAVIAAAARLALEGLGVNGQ
Method: as §6, §4, §5

[11] = target: T5, OXA-1 β-lactamase (Class D oxacillinase) (Escherichia coli, UniProt P13661); assay: β-Lactamase inhibition, OXA-1; format: biochemical; conditions: nitrocefin 100 μM, 486 nm; 15 min preincubation at 37° C., PBS pH 7.4
T5 construct: made in house; host or cells: E. coli BL21(DE3)
T5 sequence (P13661 26-276): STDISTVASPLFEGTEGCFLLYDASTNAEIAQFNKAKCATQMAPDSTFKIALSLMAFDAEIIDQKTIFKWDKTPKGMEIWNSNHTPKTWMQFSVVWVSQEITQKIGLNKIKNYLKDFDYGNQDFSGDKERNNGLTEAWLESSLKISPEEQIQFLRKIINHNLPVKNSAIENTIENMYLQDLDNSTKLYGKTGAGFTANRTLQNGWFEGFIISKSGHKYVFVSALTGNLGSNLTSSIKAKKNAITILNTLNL
Method: as §6, §4, §5

SMILES: C[C@@H](O)[C@H]1C(=O)N2C(C(=O)O)=C(S[C@@H]3CN[C@H](C(=O)N(C)C)C3)[C@H](C)[C@H]12 [Meropenem, reference compound]
MIC ([1]; Klebsiella pneumoniae, read-out: MIC alone, K. pneumoniae expressing KPC-2 and VIM-4): 64 µg/mL
MIC ([2]; Klebsiella pneumoniae, read-out: MIC alone, K. pneumoniae expressing KPC-3): > 128 µg/mL
MIC ([3]; Pseudomonas aeruginosa, read-out: MIC alone, P. aeruginosa expressing VIM-2): 16 µg/mL

MIC ([4]; Staphylococcus aureus, MSSA, partner antibiotic alone, no β-lactamase inhibitor): 64 µg/mL
SMILES: CCN1CCN(C(=O)N[C@@H](C(=O)N[C@@H]2C(=O)N3[C@@H]2SC(C)(C)[C@@H]3C(=O)O)c2ccccc2)C(=O)C1=O [Piperacillin, reference compound]

SMILES: N=C(N)N1CCC(CC(=O)N[C@H]2Cc3cccc(C(=O)O)c3OB2O)CC1 [Example 33, 3-[2-(1-Carbamimidoyl-piperidin-4-yl)-acetylamino]-2-hydroxy-3,4-dihydro-2H-benzo[e][1,2]oxaborinine-8-carboxylic acid]
MIC of example compound in presence of fixed β-lactam: Fixed CAZ, E. coli ESBL4 CTX-M-15 [5]: C (the MIC in the presence of <4 μg/mL of a β-lactamase inhibitor)
pIC50 [6]: 5.00 to 6.00
MIC of example compound in presence of fixed β-lactam: Fixed CAZ, E. cl. 144200 p99 AmpC [7]: C (the MIC in the presence of <4 μg/mL of a β-lactamase inhibitor)
MIC of example compound in presence of fixed β-lactam: Fixed Mero, K. P. A-1797 KPC-2 VIM-4 [1]: B (the MIC in the presence of between 8 and 32 μg/mL of a β-lactamase inhibitor)
pIC50 [8]: > 7.00
pIC50 [9]: > 7.00
MIC of example compound in presence of fixed β-lactam: Fixed Mero, K. P. 156319 KPC-3 ([2]; fixed 4 μg/mL meropenem, CAMHB, 16-20 hours at 37° C.): B (the MIC in the presence of between 8 and 32 μg/mL of a β-lactamase inhibitor)
MIC of example compound in presence of fixed β-lactam: Fixed Pip, S. aureus MSSA-7 PC-1 [4]: C (the MIC in the presence of <4 μg/mL of a β-lactamase inhibitor)
MIC of example compound in presence of fixed β-lactam: Fixed Mero, P. aerug. Ps296 VIM-2 [3]: A (an MIC of the fixed β-lactam antibiotic in the presence of >32 μg/mL of a β-lactamase inhibitor)
pIC50 [10]: 6.00 to 7.00

SMILES: NC1CCN(CC(=O)N[C@H]2Cc3cccc(C(=O)O)c3OB2O)CC1 [Example 1, 3-[2-(4-Amino-piperidin-1-yl)-acetylamino]-2-hydroxy-3,4-dihydro-2H-benzo[e][1,2]oxaborinine-8-carboxylic acid]
MIC of example compound in presence of fixed β-lactam: Fixed CAZ, E. coli ESBL4 CTX-M-15 [5]: C (the MIC in the presence of <4 μg/mL of a β-lactamase inhibitor)
pIC50 [11]: 6.00 to 7.00
pIC50 [6]: 4.00 to 5.00
MIC of example compound in presence of fixed β-lactam: Fixed CAZ, E. cl. 144200 p99 AmpC [7]: B (the MIC in the presence of between 8 and 32 μg/mL of a β-lactamase inhibitor)
MIC of example compound in presence of fixed β-lactam: Fixed Mero, K. P. A-1797 KPC-2 VIM-4 [1]: A (an MIC of the fixed β-lactam antibiotic in the presence of >32 μg/mL of a β-lactamase inhibitor)
pIC50 [8]: > 7.00
pIC50 [9]: > 7.00
MIC of example compound in presence of fixed β-lactam: Fixed Pip, S. aureus MSSA-7 PC-1 [4]: C (the MIC in the presence of <4 μg/mL of a β-lactamase inhibitor)
MIC of example compound in presence of fixed β-lactam: Fixed Mero, P. aerug. Ps296 VIM-2 [3]: A (an MIC of the fixed β-lactam antibiotic in the presence of >32 μg/mL of a β-lactamase inhibitor)
pIC50 [10]: > 7.00
